From patent US12162934B2, “Gremlin-1 antagonist for the prevention and treatment of cancer” (UCB BIOPHARMA SRL, priority 2018, dated 2024)

Tests used:
mouse intestinal crypts = experiment: Mouse intestinal organoid culture; format: cell-based; details: 1 mg/ml antibody added to fully supplemented EGR media
From the text: Culture of mouse intestinal crypts. Mouse intestinal crypts were isolated and cultured as described by Sato et al (6). In brief, crypts were isolated, resuspended in Matrigel (BD Biosciences) and plated out in 24-well plates. The basal culture medium (advanced Dulbecco's modified Eagle medium/F12 supplemented with penicillin/streptomycin, 10 mmol/L HEPES, Glutamax, 1×N2, 1×B27 (all from Invitrogen), and 1 mmol/L N-acetylcysteine (Sigma)) was overlaid containing the following growth factors; Epidermal Growth Factor at 50 ng/ml (Life Technologies), Gremlin1 at 100 ng/ml (R and D), R-spondin1 at 500 ng/ml (R and D) [EGR media]. Anti-Grem1 antibody (UCB) was used at a concentration of 1 mg/ml. The media was changed every two days.
A mouse organoid culture was used to assess effects of an anti-GREM1 antibody. Successful intestinal epithelial organoid culture is dependent on media supplementation of exogenous BMP antagonist.
Approximately 60% of crypts formed organoids in media fully supplemented with recombinant epidermal growth factor (E), Grem1 (G) and R-Spondin1, (R) (EGR media). Culture success rate dropped to less than 2% at 7 days in media lacking recombinant Grem1 (ER media).

Vil1-Grem1 mice = experiment: AOM mutagenesis in Vil1-Grem1 mice; format: in vivo, mouse; details: 30 mg/kg weekly antibody for three weeks before and after three 10 mg/kg weekly AOM doses
From the text: Aberrant epithelial Grem1 expression in Vil1-Grem1 mice promotes an epithelial stem/progenitor cell phenotype (Davis et al., 2015), and we hypothesised that these cells would be susceptible to somatic mutation. We used azoxymethane (AOM) administration to examine the effect of a mutagenic insult on untreated Vil1-Grem1 and anti-Grem1 treated Vil1Grem1 mice. AOM is a well-documented mutagen widely utilised in murine models to recapitulate spontaneous CRC carcinogenesis (Neufert and Neurath, 2007).
Mice were treated with three subcutaneous doses of 30 mg/kg weekly anti-Grem1 antibody followed by three intraperitoneal doses of 10 mg/kg weekly azoxymethane (AOM, Sigma) or vehicle (saline) prior to a further three weeks of 30 mg/kg weekly anti-Grem1 antibody. Treatment commenced at or from the age of 90 days onwards, which is late enough in the Vil1-Grem1 disease process to ensure expansion of the progenitor cell population and subsequent formation of ectopic crypt foci.

[1] = test system: Foxl1, Wnt5A and Wnt2B expression; experiment: In situ hybridisation of Foxl1 and Wnt ligands in Vil1-Grem1 villus stroma; format: in vivo, mouse
Method: To investigate the source of Wnt ligand expression in the villus ectopic crypts in antibody treated and untreated Vil1-Grem1 mice (n=4) we used Foxl1 in situ hybridization (ISH) to identify sub-epithelial telocyte cells as described by Shoshkes-Carmel et al. (2018). Foxl1 expression levels were quantified using the HALO image analysis software.
Paraffin blocks were sectioned (thickness=[…]) using DEPC (Sigma) treated H2O and sections were baked for 2 hours at 60° C. Tissue was deparaffinised and treated with RNAscope Hydrogen Peroxide (ACD 322335) for 10 min at room temperature (RT). Antigen retrieval was performed for 15 minutes using RNAscope 1× Target Retrieval Reagents (1:10 ACD 322000) at 100° C. Samples were treated with RNAscope Protease Plus (ACD 322331) for 30 minutes at 40° C. using an HybEZ Hybridization System (ACD). Probes were incubated for 2 h at 40° C. Probes used were as follows: LGR4 (ACD 318321), LGR5 (ACD 312171), FZD5 (ACD 404911), FZD7 (ACD 534101), WNT2B (ACD 405031), WNT5A (ACD 316791), WNT5A-C3 (ACD, 316791-C3) and FOXL1 (ACD 407401). Slides were counter-stained using Haematoxylin […] or DAPI (Fluorescent).
Slides were scanned at 20× magnification using an Aperio CS2 Digital Pathology Scanner (Leica Biosystems). […] Foxl1 expression levels were quantified using the HALO image analysis platform (PerkinElmer) and expressed as % of DAB staining per area. […]

## Ab7326: allosteric inhibitory anti-Gremlin-1 antibody from a naïve human library; CDRs SEQ ID NOS 4 to 9; mouse IgG1 in mouse experiments
Mouse intestinal crypts
  Intestinal organoid culture success: prevented successful intestinal organoid culture
Vil1-Grem1 mice
  Increased tumour burden and reduced survival of AOM-treated animals: partially abrogated
[1]; antibody-treated Vil1-Grem1 mice
  Stromal Wnt ligand (5A and 2B) expression (ISH): abrogated Wnt ligand expression
[1]; antibody-treated Vil1-Grem1 vs WT p=0.4864
  Villus stromal Foxl1 expression (ISH): restored Foxl1 expression levels
